Assay results published in the kinase profiling compilation of Christmann-Franck et al. (2016).
“And” between values parts separate entries of the source, which are not always exact repeats. Equal entries are not always repeated.

What was measured:
Assay in all cases: radiometric filter-binding kinase assay, Kinase HotSpot
Details in all cases: compound 0.5 µM; ATP 10 µM
[1] = biological target: FGFR4 (human) (UniProt P22455)
[2] = biological target: NEK6 (human) (UniProt Q9HC98)
[3] = biological target: MARK1 (human) (UniProt Q9P0L2)
[4] = biological target: RPS6KB1 (human) (UniProt P23443)
[5] = biological target: SGK2 (human) (UniProt Q9HBY8)
[6] = biological target: CLK3 (human) (UniProt P49761)
[7] = biological target: RPS6KA1 KD1 KD2 (human) (UniProt Q15418)
[8] = biological target: MST1R (human) (UniProt Q04912)
[9] = biological target: TEC (human) (UniProt P42680)
TEC (human), sequence (P42680 whole entry, looked up): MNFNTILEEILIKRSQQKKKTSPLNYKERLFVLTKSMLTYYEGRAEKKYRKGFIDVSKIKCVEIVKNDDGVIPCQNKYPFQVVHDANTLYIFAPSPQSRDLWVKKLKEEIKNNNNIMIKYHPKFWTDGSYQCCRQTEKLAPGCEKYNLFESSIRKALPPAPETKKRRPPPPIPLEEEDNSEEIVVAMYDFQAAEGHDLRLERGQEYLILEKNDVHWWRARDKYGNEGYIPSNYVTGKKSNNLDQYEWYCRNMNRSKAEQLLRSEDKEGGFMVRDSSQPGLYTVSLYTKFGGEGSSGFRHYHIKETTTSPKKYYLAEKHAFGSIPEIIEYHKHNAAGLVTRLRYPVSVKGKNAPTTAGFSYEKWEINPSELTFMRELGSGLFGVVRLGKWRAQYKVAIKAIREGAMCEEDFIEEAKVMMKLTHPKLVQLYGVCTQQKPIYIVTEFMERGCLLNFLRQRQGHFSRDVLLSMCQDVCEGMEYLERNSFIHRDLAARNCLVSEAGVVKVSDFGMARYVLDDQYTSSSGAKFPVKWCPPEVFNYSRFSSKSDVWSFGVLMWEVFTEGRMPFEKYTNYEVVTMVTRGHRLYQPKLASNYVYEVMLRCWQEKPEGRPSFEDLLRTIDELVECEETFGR

[10] = biological target: MYLK (human) (UniProt Q15746)
[11] = biological target: PRKCZ (human) (UniProt Q05513)
[12] = biological target: MAPK1 (human) (UniProt P28482)
[13] = biological target: ACVR1 (human) (UniProt Q04771)
ACVR1 (human), sequence (Q04771 whole entry, looked up): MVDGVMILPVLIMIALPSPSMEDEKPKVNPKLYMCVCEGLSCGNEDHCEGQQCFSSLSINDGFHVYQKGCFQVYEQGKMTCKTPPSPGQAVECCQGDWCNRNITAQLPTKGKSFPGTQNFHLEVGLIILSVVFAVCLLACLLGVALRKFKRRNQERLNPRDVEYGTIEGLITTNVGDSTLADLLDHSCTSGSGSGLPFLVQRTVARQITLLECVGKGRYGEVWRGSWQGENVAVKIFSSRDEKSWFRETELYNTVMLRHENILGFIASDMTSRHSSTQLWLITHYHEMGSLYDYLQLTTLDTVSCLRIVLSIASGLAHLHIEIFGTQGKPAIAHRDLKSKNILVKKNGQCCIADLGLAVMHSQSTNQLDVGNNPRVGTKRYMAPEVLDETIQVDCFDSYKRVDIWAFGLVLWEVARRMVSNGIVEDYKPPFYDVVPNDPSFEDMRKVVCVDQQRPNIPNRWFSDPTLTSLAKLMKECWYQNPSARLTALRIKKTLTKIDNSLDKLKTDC

[14] = biological target: NEK4 (human) (UniProt P51957)
[15] = biological target: ERBB2 (human) (UniProt P04626)
ERBB2 (human), sequence (P04626 whole entry, looked up): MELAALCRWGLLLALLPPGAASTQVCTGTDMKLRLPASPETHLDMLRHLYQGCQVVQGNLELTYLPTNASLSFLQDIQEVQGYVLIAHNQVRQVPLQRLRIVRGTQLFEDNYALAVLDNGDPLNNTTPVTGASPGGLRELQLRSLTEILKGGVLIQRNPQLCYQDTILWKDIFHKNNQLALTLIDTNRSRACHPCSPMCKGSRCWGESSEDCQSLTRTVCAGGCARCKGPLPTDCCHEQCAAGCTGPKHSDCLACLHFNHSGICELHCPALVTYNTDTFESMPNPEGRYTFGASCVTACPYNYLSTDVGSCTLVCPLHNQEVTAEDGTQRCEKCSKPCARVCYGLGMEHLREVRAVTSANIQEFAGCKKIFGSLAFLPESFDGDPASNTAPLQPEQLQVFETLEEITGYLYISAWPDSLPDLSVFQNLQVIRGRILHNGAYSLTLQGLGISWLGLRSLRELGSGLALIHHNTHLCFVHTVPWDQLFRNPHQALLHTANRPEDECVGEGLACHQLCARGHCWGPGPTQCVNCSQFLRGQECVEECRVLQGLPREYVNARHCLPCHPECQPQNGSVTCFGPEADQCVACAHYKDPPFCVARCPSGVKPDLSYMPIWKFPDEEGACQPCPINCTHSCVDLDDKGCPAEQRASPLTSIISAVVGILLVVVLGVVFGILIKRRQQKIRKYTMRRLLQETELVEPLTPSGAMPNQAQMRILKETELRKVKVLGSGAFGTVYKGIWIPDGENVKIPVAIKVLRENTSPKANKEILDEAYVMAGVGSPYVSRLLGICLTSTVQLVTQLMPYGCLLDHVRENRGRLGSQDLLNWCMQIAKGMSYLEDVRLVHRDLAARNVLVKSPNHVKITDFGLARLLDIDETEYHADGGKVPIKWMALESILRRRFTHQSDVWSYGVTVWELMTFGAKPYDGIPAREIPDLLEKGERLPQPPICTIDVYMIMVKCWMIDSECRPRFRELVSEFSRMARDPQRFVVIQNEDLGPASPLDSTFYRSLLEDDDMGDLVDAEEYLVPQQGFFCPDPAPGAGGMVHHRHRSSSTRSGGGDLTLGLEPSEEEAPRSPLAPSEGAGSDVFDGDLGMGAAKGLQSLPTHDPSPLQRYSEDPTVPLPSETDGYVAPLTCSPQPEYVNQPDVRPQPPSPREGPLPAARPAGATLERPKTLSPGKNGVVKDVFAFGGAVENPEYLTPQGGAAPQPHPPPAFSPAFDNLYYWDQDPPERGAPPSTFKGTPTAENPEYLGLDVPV

[16] = biological target: PASK (human) (UniProt Q96RG2)
PASK (human), sequence (Q96RG2 whole entry, looked up): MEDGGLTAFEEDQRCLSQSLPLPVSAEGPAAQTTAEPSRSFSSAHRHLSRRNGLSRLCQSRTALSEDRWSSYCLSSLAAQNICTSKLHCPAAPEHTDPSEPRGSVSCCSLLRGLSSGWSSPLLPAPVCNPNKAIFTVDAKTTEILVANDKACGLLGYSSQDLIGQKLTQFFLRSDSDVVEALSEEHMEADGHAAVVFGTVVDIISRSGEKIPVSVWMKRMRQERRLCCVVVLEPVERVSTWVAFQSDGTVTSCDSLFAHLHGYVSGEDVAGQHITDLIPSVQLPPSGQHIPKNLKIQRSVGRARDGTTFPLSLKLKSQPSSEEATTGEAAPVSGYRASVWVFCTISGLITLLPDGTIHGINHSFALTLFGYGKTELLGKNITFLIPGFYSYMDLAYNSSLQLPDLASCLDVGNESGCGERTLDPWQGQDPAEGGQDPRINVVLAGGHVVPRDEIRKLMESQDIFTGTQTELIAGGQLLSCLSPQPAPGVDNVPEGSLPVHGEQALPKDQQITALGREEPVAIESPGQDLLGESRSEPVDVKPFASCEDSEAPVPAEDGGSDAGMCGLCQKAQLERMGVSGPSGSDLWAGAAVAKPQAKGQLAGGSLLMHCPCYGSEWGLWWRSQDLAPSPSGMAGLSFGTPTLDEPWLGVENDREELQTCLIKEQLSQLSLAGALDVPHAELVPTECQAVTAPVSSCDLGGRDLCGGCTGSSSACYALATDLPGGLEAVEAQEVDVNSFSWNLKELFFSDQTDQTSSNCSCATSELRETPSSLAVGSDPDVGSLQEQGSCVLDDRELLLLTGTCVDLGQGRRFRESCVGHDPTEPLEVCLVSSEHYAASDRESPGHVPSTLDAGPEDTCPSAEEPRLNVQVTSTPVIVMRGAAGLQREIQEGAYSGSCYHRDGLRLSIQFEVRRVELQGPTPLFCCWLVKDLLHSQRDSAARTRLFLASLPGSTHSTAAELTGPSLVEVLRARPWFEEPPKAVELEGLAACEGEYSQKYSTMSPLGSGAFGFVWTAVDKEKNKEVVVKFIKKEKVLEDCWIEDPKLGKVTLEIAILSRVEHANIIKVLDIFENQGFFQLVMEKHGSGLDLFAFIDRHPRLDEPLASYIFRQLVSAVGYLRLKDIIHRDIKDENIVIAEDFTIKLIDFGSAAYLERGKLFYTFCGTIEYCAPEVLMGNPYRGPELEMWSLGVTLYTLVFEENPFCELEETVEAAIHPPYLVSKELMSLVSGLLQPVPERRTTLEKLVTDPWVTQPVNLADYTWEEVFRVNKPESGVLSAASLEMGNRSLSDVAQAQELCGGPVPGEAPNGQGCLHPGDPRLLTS

[17] = biological target: MST4 (human) (UniProt Q9P289)
[18] = biological target: SRPK1 (human) (UniProt Q96SB4)
[19] = biological target: CHUK (human) (UniProt O15111)
[20] = biological target: PRKCH (human) (UniProt P24723)
[21] = biological target: MAPK12 (human) (UniProt P53778)
[22] = biological target: PRKG1 (human) (UniProt Q13976)
[23] = biological target: ULK1 (human) (UniProt O75385)
[24] = biological target: PIM3 (human) (UniProt Q86V86)
[25] = biological target: NEK7 (human) (UniProt Q8TDX7)
NEK7 (human), sequence (Q8TDX7 whole entry, looked up): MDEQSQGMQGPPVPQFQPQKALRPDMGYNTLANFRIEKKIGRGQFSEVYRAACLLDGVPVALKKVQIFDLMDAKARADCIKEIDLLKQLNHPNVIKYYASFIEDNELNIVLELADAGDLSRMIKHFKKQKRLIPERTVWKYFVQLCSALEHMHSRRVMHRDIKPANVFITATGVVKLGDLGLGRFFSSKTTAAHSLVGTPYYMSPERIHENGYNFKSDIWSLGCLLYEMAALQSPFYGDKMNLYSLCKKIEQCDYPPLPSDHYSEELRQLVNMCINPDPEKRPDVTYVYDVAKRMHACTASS

[26] = biological target: RPS6KB2 (human) (UniProt Q9UBS0)
[27] = biological target: KDR (human) (UniProt P35968)
[28] = biological target: JAK3 JH1 JH2 (human) (UniProt P52333)
[29] = biological target: PRKCA (human) (UniProt P17252)
[30] = biological target: ROCK1 (human) (UniProt Q13464)
[31] = biological target: IRAK1 (human) (UniProt P51617)
[32] = biological target: AURKC (human) (UniProt Q9UQB9)
[33] = biological target: KIT (human) (UniProt P10721)
KIT (human), sequence (P10721 whole entry, looked up): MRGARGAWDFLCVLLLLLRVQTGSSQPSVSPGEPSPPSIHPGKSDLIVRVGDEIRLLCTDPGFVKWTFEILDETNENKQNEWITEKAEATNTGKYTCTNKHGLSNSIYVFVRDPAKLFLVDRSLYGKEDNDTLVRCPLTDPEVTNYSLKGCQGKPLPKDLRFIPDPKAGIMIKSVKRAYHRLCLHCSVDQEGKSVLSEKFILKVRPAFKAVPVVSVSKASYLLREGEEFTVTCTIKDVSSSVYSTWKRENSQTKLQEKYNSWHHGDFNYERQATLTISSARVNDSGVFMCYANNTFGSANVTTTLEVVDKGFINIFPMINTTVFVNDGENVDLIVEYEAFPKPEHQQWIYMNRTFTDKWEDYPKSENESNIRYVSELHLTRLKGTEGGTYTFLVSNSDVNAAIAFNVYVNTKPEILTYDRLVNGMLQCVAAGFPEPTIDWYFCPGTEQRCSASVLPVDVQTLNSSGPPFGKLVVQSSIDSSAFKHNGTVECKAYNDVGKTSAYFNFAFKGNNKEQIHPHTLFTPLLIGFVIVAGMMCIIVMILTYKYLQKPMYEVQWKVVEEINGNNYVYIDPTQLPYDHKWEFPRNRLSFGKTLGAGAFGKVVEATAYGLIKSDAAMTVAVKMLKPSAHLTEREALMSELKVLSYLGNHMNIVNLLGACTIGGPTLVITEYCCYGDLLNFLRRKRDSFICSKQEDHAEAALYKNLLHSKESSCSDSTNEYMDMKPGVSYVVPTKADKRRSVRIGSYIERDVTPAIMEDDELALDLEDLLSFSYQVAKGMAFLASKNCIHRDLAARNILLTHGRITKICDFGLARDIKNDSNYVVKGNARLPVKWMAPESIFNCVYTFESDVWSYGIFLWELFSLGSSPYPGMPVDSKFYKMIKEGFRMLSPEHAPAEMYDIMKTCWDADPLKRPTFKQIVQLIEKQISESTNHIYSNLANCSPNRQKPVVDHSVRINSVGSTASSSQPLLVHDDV

[34] = biological target: CDK6 CCND1 (human) (UniProt Q00534+P24385)
[35] = biological target: MAPK10 (human) (UniProt P53779)
[36] = biological target: ALK (human) (UniProt Q9UM73)
[37] = biological target: MELK (human) (UniProt Q14680)
[38] = biological target: MAPK13 (human) (UniProt O15264)
[39] = biological target: NUAK2 (human) (UniProt Q9H093)
[40] = biological target: CHEK2 (human) (UniProt O96017)
[41] = biological target: EPHA4 (human) (UniProt P54764)
[42] = biological target: PRKD2 (human) (UniProt Q9BZL6)

COc1cc2ncnc(Nc3ccc(Oc4ccccc4)cc3)c2cc1OC
residual activity [1]: 77.8% | residual activity [2]: 93% | residual activity [3]: 93.3% | residual activity [4]: 108% | residual activity [5]: 113% | residual activity [6]: 101% | residual activity [7]: 97.6% | residual activity [8]: 95.7% | residual activity [9]: 43.3% | residual activity [10]: 105% | residual activity [11]: 100% | residual activity [12]: 99.8% | residual activity [13]: 93.7% | residual activity [14]: 96.8% | residual activity [15]: 29.5% | residual activity [16]: 104% | residual activity [17]: 102% | residual activity [18]: 105% | residual activity [19]: 101% | residual activity [20]: 87.3% | residual activity [21]: 105% | residual activity [22]: 92.5% and 93.6% | residual activity [23]: 89.5% | residual activity [24]: 96.9% | residual activity [25]: 103% | residual activity [26]: 97.4% | residual activity [27]: 92.1% | residual activity [28]: 93.1% | residual activity [29]: 101% | residual activity [30]: 102% | residual activity [31]: 122% | residual activity [32]: 93.9% | residual activity [33]: 75.6% | residual activity [34]: 95.1% | residual activity [35]: 103% | residual activity [36]: 109% | residual activity [37]: 101% | residual activity [38]: 103% | residual activity [39]: 137% | residual activity [40]: 29.6% | residual activity [41]: 106% | residual activity [42]: 100%

COc1ccc2c(c1)c(C1=C(c3c[nH]c4ccccc34)C(=O)NC1=O)cn2CCCN(C)C
residual activity [1]: 79.2% | residual activity [2]: 101% | residual activity [3]: 93.2% | residual activity [4]: 19.7% | residual activity [5]: 92.6% | residual activity [6]: 43.6% | residual activity [7]: 16% | residual activity [8]: 91.3% | residual activity [9]: 97.9% | residual activity [10]: 66.9% | residual activity [11]: 78.2% | residual activity [12]: 102% | residual activity [13]: 98% | residual activity [14]: 90.7% | residual activity [15]: 115% | residual activity [16]: 83.8% | residual activity [17]: 40.4% | residual activity [18]: 116% | residual activity [19]: 96.5% | residual activity [20]: 6.85% | residual activity [21]: 84.8% | residual activity [22]: 79.4% and 99.5% | residual activity [23]: 99% | residual activity [24]: 5.01% | residual activity [25]: 99.1% | residual activity [26]: 65.4% | residual activity [27]: 40.7% | residual activity [28]: 138% | residual activity [29]: 3.14% | residual activity [30]: 93.5% | residual activity [31]: 89% | residual activity [32]: 90.4% | residual activity [33]: 88.8% | residual activity [34]: 64% | residual activity [35]: 88.8% | residual activity [36]: 96% | residual activity [37]: 70.7% | residual activity [38]: 108% | residual activity [39]: 81% | residual activity [40]: 38.8% | residual activity [41]: 94.5% | residual activity [42]: 92.3%

Ic1cccc(CSc2nnc(-c3ccncc3)o2)c1
residual activity [1]: 97.2% | residual activity [2]: 95.4% | residual activity [3]: 111% | residual activity [4]: 100% | residual activity [5]: 102% | residual activity [6]: 76.3% | residual activity [7]: 98.6% | residual activity [8]: 104% | residual activity [9]: 106% | residual activity [10]: 99.1% | residual activity [11]: 96.1% | residual activity [12]: 107% | residual activity [13]: 97.4% | residual activity [14]: 93.7% | residual activity [15]: 99.6% | residual activity [16]: 100% | residual activity [17]: 103% | residual activity [18]: 103% | residual activity [19]: 96.5% | residual activity [20]: 99.1% | residual activity [21]: 93% | residual activity [22]: 92.1% and 95.5% | residual activity [23]: 97.1% | residual activity [24]: 106% | residual activity [25]: 102% | residual activity [26]: 103% | residual activity [27]: 78.1% | residual activity [28]: 106% | residual activity [29]: 123% | residual activity [30]: 88% | residual activity [31]: 121% | residual activity [32]: 91.2% | residual activity [33]: 99.8% | residual activity [34]: 97.5% | residual activity [35]: 95.7% | residual activity [36]: 101% | residual activity [37]: 97.7% | residual activity [38]: 93.8% | residual activity [39]: 98.9% | residual activity [40]: 102% | residual activity [41]: 105% | residual activity [42]: 97.1%
